The subject of series [1] is mice of Kunming breed. The experiment in a line: MK-801 induced high activity in mice. It counts as in vivo. Particulars: Mus musculus, 1.5 h, po, MK-801 0.1 mg/kg ip, spontaneous activities in 90 min. The protocol: Example 54: MK-801 Induced High Activity—the In Vivo Anti-Schizophrenia Activity of the Compounds
Healthy mice of Kunming breed (with half male and half female, (20±2) g) were provided by Qinglongshan Animal Cultivation Center, Nanjing.
Ascorbic acid was provided by Sinopharm Chemical Reagent Co. Ltd.
MK-801 was produced by Sigma Company, USA; the formulation method: 0.1% vitamin C was used to formulate a 1 mg/ml solution.
Test positive drugs: haloperidol, clozapine, risperidone, olanzapine, aripiprazole, ziprasidone, quetiapine.
Tween 80, with the concentration of 10%.
Mice with qualified body weight were selected, and randomly divided into blank group, model group, positive control group (risperidone group) and drug group. […] 1 h after the administration, 0.1% concentration of ascorbic acid was intraperitoneally injected to the blank group at 0.1 ml/10 g; and the model group, the positive control group (30 min) and the drug group were intraperitoneally injected the MK-801 solution at 0.1 mg/kg. Subsequently, the spontaneous activities of the mice of each group in 90 min were measured.

The subject of a further series is KM mice. The experiment in a line: in vivo.
Series [2] deals with mice of Kunming breed. The experiment in a line: Apomorphine induced clambering assay of mice. It counts as in vivo. Particulars: Mus musculus; mice, po; apomorphine 1 mg/kg sc 1 hour after administration; read-out: Apomorphine induced clambering (ED50, po, mg/kg). On the procedure: Healthy mice of Kunming breed (KM) (male, with body weight of 18-22 g) were provided by Qinglongshan Animal Cultivation Center, Nanjing.
Apomorphine provided by Sigma Company was dissolved in 0.9% NaCl (containing 0.1% vitamin C) before use, and was freshly formulated before use.
Vitamin C, F20061113, was provided by Sinopharm Chemical Reagent Co. Ltd.
Sodium chloride injection, H32026305, was provided by Xuzhou No. 5 Pharmaceutical Factory Co. Ltd.
Instruments: self-made clambering cage, chronograph.
Procedures: apomorphine induced clambering assay of mice
After 5 min of adaptation, the behavior of the mice at 10-11, 20-21, and 30-31 min after the injection of apomorphine were observed and scored. Scoring criteria: the behavior of 4 paws on the floor was scored as 0; the behavior of 2 forepaws on the cage was scored as 1; and the behavior of 4 paws on the cage was scored as 2.

A further series deals with T1, 5HT1A receptor (Rattus norvegicus, UniProt P19327).
T1 construct: Rats were decapitated on ice; from tissue; host or cells: rat brain striatum
T1 sequence (P19327 1-422): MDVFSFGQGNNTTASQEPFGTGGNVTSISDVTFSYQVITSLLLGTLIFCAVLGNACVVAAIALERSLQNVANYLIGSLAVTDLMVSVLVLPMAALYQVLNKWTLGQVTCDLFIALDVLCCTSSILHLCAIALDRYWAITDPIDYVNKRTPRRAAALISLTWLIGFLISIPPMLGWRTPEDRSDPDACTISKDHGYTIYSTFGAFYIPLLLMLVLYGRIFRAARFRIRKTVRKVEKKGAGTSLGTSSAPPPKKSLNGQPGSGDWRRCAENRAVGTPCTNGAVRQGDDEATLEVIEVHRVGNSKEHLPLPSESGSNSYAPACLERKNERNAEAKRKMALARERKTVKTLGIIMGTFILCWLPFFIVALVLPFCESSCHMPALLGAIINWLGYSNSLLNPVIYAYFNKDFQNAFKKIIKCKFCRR
The experiment in a line: 5HT1A receptor binding assay (3H-8-OH-DPAT, rat striatum membrane). Particulars: test compound final concentration 10^−5 M; 3H-8-OH-DPAT; rat striatum membrane; read-out: 5HT1A Inhibition rate (%). The protocol: Preparation of 5HT1A Membrane
Rats were decapitated on ice. […] Incubation at 37° C. was conducted for 10 min. […] Centrifugation was conducted at 12000 rpm, 4° C. for 20 min. […] Centrifugation was conducted and repeated 3 times.
(§1) Materials for the Receptor Binding Assay

The target in the next series is T2, D3 receptor (Homo sapiens, UniProt P35462).
T2 construct: expressed in transfected cells; host or cells: HEK-293
T2 sequence (P35462 whole entry): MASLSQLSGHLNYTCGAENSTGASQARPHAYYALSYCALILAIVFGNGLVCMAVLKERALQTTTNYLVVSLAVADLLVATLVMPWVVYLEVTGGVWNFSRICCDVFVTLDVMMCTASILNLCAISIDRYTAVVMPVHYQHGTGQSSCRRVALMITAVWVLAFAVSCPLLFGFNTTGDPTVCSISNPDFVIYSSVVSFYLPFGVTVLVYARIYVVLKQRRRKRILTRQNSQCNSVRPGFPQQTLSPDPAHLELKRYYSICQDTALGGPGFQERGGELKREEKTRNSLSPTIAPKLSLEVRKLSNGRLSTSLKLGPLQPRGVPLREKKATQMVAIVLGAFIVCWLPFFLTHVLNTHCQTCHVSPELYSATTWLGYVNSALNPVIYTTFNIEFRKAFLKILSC
The experiment in a line: D3 receptor assay ([3H]-Spiperone, HEK-293 cells). It counts as binding. Particulars: test compound final concentration 10 μmol/L; [3H]-Spiperone; HEK-293 cells; read-out: D3 Inhibition rate (%). The protocol: Then the cells were centrifuged at 1000 rpm for 5 min, the supernatant was discarded, and the cell pellets was collected and stored in a −20° C. fridge for reservation. It was re-suspended with Tris-Cl (pH 7.4) when the assay was performed.
Tris was divided into aliquots by Genetimes Technology Inc.
Competitive binding test for receptors: 20 μl of each of the test compounds and 20 μl of the radioactive ligand together with 160 μl of the receptor proteins were added into the reaction tubes, and the final concentrations of the test compound and the positive drug were all 10 μmol/L. After 50 min of incubation in 30° C. water bath, the tubes were immediately moved to ice bath to terminate the reactions. GF/C glass fiber filter papers were used for rapid sucking filtration on a Millipore cell sample collector, 3 ml of elution buffer (50 mM Tris-HCl, PH 7.4) was applied for 3 times, and microwave was applied for 4-5 min for drying. The filter paper was moved into 0.5 ml centrifuge tube, and 500 μl of liposoluble scintillation cocktail was added. The tubes were allowed to stand still for over 30 min in dark, and the intensities of radioactivity were measured by a counter.

For series [3], the system named is α1 norepinephrine receptor. The experiment in a line: α1 norepinephrine receptor binding assay (3H-prazosin, rat cortex membrane). Particulars: test compound final concentration 10^−5 M; 3H-prazosin; rat cortex membrane. The source says:
Preparation of Receptor Membrane of Norepinephrine
α1 Norepinephrine Receptor Binding Assay

In another series the target is T3, 5HT2C receptor (Rattus norvegicus, UniProt P08909).
T3 construct: from tissue; host or cells: rat brain striatum
T3 sequence (P08909 33-460): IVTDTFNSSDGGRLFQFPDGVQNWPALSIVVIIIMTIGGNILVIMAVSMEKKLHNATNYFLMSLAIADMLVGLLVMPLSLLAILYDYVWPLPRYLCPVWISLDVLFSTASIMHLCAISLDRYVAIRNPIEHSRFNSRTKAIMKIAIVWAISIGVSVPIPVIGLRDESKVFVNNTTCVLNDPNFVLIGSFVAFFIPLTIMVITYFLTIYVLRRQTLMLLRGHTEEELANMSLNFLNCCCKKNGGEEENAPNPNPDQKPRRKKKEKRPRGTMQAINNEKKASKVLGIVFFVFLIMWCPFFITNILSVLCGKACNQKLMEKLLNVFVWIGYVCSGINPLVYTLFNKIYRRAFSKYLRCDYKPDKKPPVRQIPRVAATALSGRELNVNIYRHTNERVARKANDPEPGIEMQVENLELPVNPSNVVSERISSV
The experiment in a line: 5HT2C receptor binding assay ([3H]-mesulergine, rat striatum membrane). Particulars: test compound final concentration 10^−5 M; [3H]-mesulergine; rat striatum membrane; read-out: 5HT2C Inhibition rate (%). The protocol: Preparation of 5HT2C Membrane
Rats were decapitated on ice. […] Centrifugation was conducted.
as §1

The nature of another series: Catalepsy assay in mice. Particulars: both sexes, Kunming, mouse, in vivo, po, bar test at 30, 60, 90 min. The protocol:
Healthy mice of Kunming breed (with half male and half female, (22±2) g) were provided by Qinglongshan Animal Cultivation Center, Nanjing.
Instruments: self-made bar-grabbing apparatus: stainless steel bar in mice box, which was 0.3 cm in diameter and […].
Corresponding solvent double-distilled water was administered intragastrically to the negative control group and the model group, corresponding positive drugs were administered intragastrically to the positive drug groups (a small amount of acetic acid was first added and then double-distilled water was added when dissolving), and corresponding dosages of compounds were administered intragastrically to the compound groups for each dosage, with the volume for intragastric administration as 0.1 ml/10 g. At 30 min, 60 min, 90 min after the intragastric administration, the two forepaws of the mice were gently placed on the bars (which were 20 cm in length, 0.3 cm in diameter, and 5.5 cm above the bench), and the hindpaws of the animals were placed on the bottom of the box. The durations of the mice to maintain the posture with the two forepaws on the bars were recorded, and 30 s of spasticity without moving was considered as the positive response. In the case the forepaws of the mice were not put down persistently, the observation was terminated at 60 s. The numbers of animals with positive response in each of the compound dosage groups were counted.

The target in the next series is Histamine H1 receptor (Rattus norvegicus, UniProt P31390). The experiment in a line: Histamine H1 receptor binding assay (3H-pyrilamine, rat cerebellum membrane). Particulars: read-out: H1 Inhibition rate (%).
Sequence of Histamine H1 receptor (P31390 whole entry): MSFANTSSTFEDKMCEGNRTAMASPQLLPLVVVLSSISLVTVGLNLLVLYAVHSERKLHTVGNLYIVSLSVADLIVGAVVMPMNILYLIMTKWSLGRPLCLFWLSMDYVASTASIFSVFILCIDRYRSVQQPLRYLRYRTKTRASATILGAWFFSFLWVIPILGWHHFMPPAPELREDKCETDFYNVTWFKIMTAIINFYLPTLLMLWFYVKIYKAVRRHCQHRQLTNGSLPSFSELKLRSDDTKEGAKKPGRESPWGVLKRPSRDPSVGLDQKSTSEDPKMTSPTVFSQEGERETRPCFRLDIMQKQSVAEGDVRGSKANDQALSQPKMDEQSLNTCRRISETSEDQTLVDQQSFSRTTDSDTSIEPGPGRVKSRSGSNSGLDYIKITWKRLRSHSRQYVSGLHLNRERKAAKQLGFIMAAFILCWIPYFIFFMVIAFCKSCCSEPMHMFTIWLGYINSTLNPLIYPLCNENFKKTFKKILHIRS
The next series can be described thus: in vivo. Particulars: both sexes, mouse, in vivo, po; single intragastric administration in mice; read-out: LD50 (po, mg/kg).
The test system of another series is D2 receptor. The experiment in a line: D2 receptor binding assay (3H-Spiperone, rat striatum membrane). Particulars: test compound final concentration 10^−5 M; 3H-Spiperone; rat striatum membrane. On the procedure: Preparation of D2 Membrane
Rats were decapitated on ice. […] The weight of the homogenized tubes were adjusted using a balance, and centrifugation was conducted. […] Centrifugation was conducted.
as §1

The target of the next series is 5HT2A receptor (Rattus norvegicus, UniProt P14842). The experiment in a line: 5HT2A receptor binding assay ([3H]-Ketanserin, rat striatum membrane). Particulars: read-out: 5HT2A Inhibition rate (%).
Sequence of 5HT2A receptor (P14842 whole entry): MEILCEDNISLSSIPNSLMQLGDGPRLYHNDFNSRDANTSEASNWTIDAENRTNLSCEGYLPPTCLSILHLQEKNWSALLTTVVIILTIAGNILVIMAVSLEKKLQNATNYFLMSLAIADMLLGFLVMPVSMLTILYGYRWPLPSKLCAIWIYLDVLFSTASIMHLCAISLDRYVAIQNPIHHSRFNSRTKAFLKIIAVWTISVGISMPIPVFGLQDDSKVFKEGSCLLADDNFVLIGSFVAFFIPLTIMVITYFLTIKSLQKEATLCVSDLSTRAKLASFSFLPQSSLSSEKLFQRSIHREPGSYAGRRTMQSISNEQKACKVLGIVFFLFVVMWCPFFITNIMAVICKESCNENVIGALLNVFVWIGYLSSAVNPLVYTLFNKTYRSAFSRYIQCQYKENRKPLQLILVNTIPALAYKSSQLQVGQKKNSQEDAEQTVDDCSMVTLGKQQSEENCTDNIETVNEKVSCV
[4] abbreviates: both, KM, mouse, in vivo, po, 7 days.
The mark [5] stands for this setting: single intragastric administration in mice.

Experimental for Histamine H1 receptor: The supernatant was discarded to give pellets, and homogenate F was added again to the pellets for washing. Centrifugation was conducted and repeated 3 times.
(2) 100 μL of membrane preparation was added into each reaction tube.

In the case of `OCCOCCN1CCN(C2=Nc3ccccc3Sc3ccccc32)CC1` [quetiapine], the ED50 in the series with mice of Kunming breed [1] came out at 10.1 mg/kg; in the series on mice of Kunming breed [2], 2.02 mg/kg. The “LD50 (po, mg/kg)” value with KM mice (setting [4]) is 800 mg/kg.
A word on the inhibition: it is how much of the control response was suppressed. With `O=C(CCN1CCC(c2noc3cc(F)ccc23)CC1)c1cc2c3c(c1)CCC(=O)N3CCC2` [Compound 2], the inhibition at 10 µM was 93.9% on 5HT1A receptor; 74.9% on D3 receptor; 63.9% on 5HT2C receptor; 47.9% at Histamine H1 receptor; 97.9% on 5HT2A receptor. Besides, the “α1 Inhibition rate (%)” value in series [3] was found to be 68.75%. In addition, the results for the ED50 with mice of Kunming breed [1], in the series “Catalepsy assay in mice” and in the series with mice of Kunming breed [2] were 0.2 mg/kg, 3.8 mg/kg and 0.11 mg/kg, respectively. In addition, the LD50 at 7 days in “in vivo” is over 2000 mg/kg. In addition, the “D2 Inhibition rate (%)” value with D2 receptor is 94.33%.
With `O=C1CCc2ccc(OCCCCN3CCN(c4cccc(Cl)c4Cl)CC3)cc2N1` [aripiprazole], the ED50 in the series on mice of Kunming breed [1] worked out at 0.12 mg/kg; with mice of Kunming breed [2], 0.66 mg/kg. Also, the “LD50 (po, mg/kg)” value in the series with KM mice (setting [4]) is listed as 93 mg/kg.
`CN1CCN(C2=Nc3cc(Cl)ccc3Nc3ccccc32)CC1` [clozapine]: the ED50 in the series on mice of Kunming breed [1] was found to be 2.28 mg/kg; with mice of Kunming breed [2], 17.9 mg/kg. Also, in the series with KM mice (setting [5]), the “LD50 (po, mg/kg)” value worked out at 150 mg/kg.
As for `O=C(CCCN1CCC(O)(c2ccc(Cl)cc2)CC1)c1ccc(F)cc1` [haloperidol], the ED50 is 7.42 mg/kg in the series with mice of Kunming breed [1] and 0.1 mg/kg with mice of Kunming breed [2]. Further, in the series with KM mice (setting [5]), the “LD50 (po, mg/kg)” value is recorded as 20 mg/kg.
`O=C1CCc2cc(CCCCN3CCC(c4noc5cc(F)ccc45)CC3)cc3c2N1CCC3` [Compound 7]: the inhibition at 10 µM at 5HT1A receptor amounted to 99.2%; on D3 receptor, 98.1%; on 5HT2C receptor it was 62.2%; at Histamine H1 receptor, 46.4%; on 5HT2A receptor it was 99.4%. Also, the “α1 Inhibition rate (%)” value in series [3] is 63.69%. The ED50 was 0.92 mg/kg with mice of Kunming breed [1], 24.1 mg/kg in “Catalepsy assay in mice” and 0.44 mg/kg in the series with mice of Kunming breed [2]. Moreover, the LD50 at 7 days in “in vivo” is over 2000 mg/kg. Besides, the “D2 Inhibition rate (%)” value in the series on D2 receptor was 94.32%.

These data come from patent US10517862B2, “Fused heterocyclic compound derivative and application thereof” (NHWA PHARMA. CORPORATION, priority 2015, dated 2019).
